We go through 2 compounds from US11291642B2, “Dimethyl fumarate particles and pharmaceutical compositions thereof” (BIOGEN MA INC., priority 2015, dated 2022).

Structures can show the parent of a compound that is named as a salt.

Holding throughout (type): physicochemical
Series [1] in a line: Comparison of unmilled coarse DMF versus wet-milled DMF for enteric coating in fluid bed. To be noted: for Coated crystals: enterically coated particles made from the named API; for Flow of API particle in fluid bed: fluid bed coating process; for Particle morphology: uncoated API particles. As for the experimental part:
The enteric coated DMF is prepared using a Glatt GPCG-2 fluid bed granulator with a 6′ Wurster column. Dissolution was run with USP apparatus II by the Pharmaceutical Analytical Development Department with the following method.
DMF first de-lumped with a Frewitt Comill with screen size 1.0 mm. Then, it is mixed with silicon dioxide (Aerosil) and being fluidize in the fluid bed granulator for 5 minutes.
Eudragit L100 and triethyl citrate is used for coating an enteric layer for stomach acid protection on the DMF API particles. Samples were taken at different L100 weight gain to compare gastric protection capability.
Unmilled coarse DMF were coated according to the method of described in Example 5. Various properties of the unmilled coarse DMF and enterically coated DMF are compared with wet-milled DMF and enterically coated DMF made from wet-milled DMF.

The nature of series [2]: Mean particle size of coarse DMF from current synthesis (method not given). To be noted: DMF isolated from current chemical synthesis, before size reduction.
A short description of series [3]: Particle morphology by Malvern Morphologi G3. To be noted: compared to jet milled material. As for the experimental part:
As used herein, “aspect ratio” is the ratio of width divided by length of a particle. “Elongation” is defined as 1-aspect ratio. Shapes symmetrical in all axes, such as circles or squares, will tend to have an elongation close to 0, whereas needle-shaped particles will have values closer to 1. Elongation is more an indication of overall form than surface roughness. As used herein, “convexity” is a measurement of the surface roughness of a particle and is calculated by dividing the perimeter of an imaginary elastic band around the particle by the true perimeter of the particle. A smooth shape, regardless of form, has a convexity of 1 while a very ‘spiky’ or irregular object has a convexity closer to 0. As used herein, “circularity” or “high sensitivity circularity” is a measurement of the ratio of […]. A perfect circle has a circularity of 1 while a very narrow rod has a High Sensitivity (HS) Circularity close to 0. The higher the HS Circularity value the closer it is to a circle. Intuitively, circularity is a measure of irregularity or the difference from a perfect circle. […] The percentage of thicker particles can be determined using Malvern Instrument Morphologi G3. […] The intensity of light is quantified by the grey scale factor which depends on the amount of light reaching the detector. […]

Series [4] is described as follows: Flow of drug product blend measured with Flodex. To be noted: blends of DMF with other excipients as in approved twice a day formulation; FIG. 1. An excerpt: The y-axis indicates the aperture of cone containing the blend powder. Smaller aperture indicates better flow.
Where [5] appears, read: listed as wet-milled DMF particles.

Turning to `COC(=O)/C=C/C(=O)OC` [Unmilled coarse API, dimethyl fumarate], in series [1], the Coated crystals entry was “Significant agglomeration”, the “Flow of API particle in fluid bed” value is reported as “Uneven flow due to API plate” and the Particle morphology was 2D plate structure. In series [1] (listed as unmilled coarse DMF particles), the Coated crystals entry is given as “Significant agglomeration of the coated particles”. Besides, in series [2], the “typical mean particle size” value is on record as 500-600 microns.
In the case of `COC(=O)/C=C/C(=O)OC` [Wet milled API, dimethyl fumarate], in series [3], the “Particle shape (aspect ratio, HS circularity, convexity)” value is “slightly less elongated, more circular and less edgy”; the “Thick particles (percentage of particles with intensity <80)” value is on record as “contained more thick particles”. For the same compound, in series [1], the Coated crystals entry is “Isolated and small”; the “Flow of API particle in fluid bed” value was “uniform flow”; the Particle morphology came out at 3D structure. In addition, in series [1] (setting [5]), the Coated crystals result was “small coated particles with uniform size distribution”, the “Flow of API particle in fluid bed” value is reported as “desirable flowability” and the Particle morphology entry is reported as “three dimensional morphology”. The “Particle size D50” value in series [1] (uncoated API, Table 8) is on record as “D50 = 60-100 μm”. In series [4], the “Powder flow of drug product blend” value is “improvement in powder flow”.
